Here are results for 7 compounds from US20120177601A1, “TREATMENT OF HEPATITIS C VIRUS INFECTIONS” (THE USA AS REPRESENTED BY THE SECRETARY OF THE DEPARTMENT …, priority 2009, published 2012).

In series [1] the test system is Huh5-15NS replicon (sub-genomic HCV RNA). In words: HCV replication in nonstructural (NS) replicon cells, real-time RT-PCR (ΔCT). The format is cell-based. The conditions noted are these: for concentration showing significant antiviral activity / required to suppress HCV replication: NS replicon, 48 hr; for Relative [HCV] [ΔCT]: overnight, Huh5-15NS, control vehicle = 1.0. The source says:
(§1) Cell lines and cell culture. The human hepatoma cell line (Huh5-15) with replicating sub-genomic HCV RNA (Lohmann et al., 1999) was a kind gift of Dr. Volker Lohmann (Institute for Virology, Johannes-Gutenberg University, Mainz, Germany), and cultivated as described (Zhu et al., 2008). Huh7.5 cells harboring full length (Huh7.5FL) Conl replicons (Blight et al., 2002) were a kind gift of Dr. Charles Rice (Rockefeller University, New York, N.Y.). These cells were passed as recommended by their laboratory of origin (Blight et al., 2002). An infectious clone of HCV, J6/JFH, was inoculated into Huh7.5 cells and the cultures passed as previously described (Lindenbach et al., 2005). Cells were incubated with BV, BR, or FeCl2 for 24-48 h in DMEM containing 5% FBS.
(§2) Quantitative Real-time RT-PCR. Total RNA was extracted from cells using Trizol reagent (Invitrogen, Carlsbad, Calif.), treated with Turbo RNase free DNase (Ambion, TX), and processed as described (Zhu et al., 2008). To assess replication, the primers and probe designed by Takeuchi et al. (1999) targeting sequences located in 5′UTR (nt130-290) were employed as described for each replicon line (Blight et al., 2002; Lohmann et al., 2003). Real-time RT-PCR was performed using Taq DNA polymerase with the TaqMan Universal PCR Master Mix Protocol (Perkin Elmer Applied Biosystems, Foster City, Calif.). Quantitation was performed using the comparative cycle threshold (ΔCT) method as described previously (Abdalla et al., 2004).
(A replicon is a self-replicating genome or part of one, used to study replication in cells.)

For series [2], the system named is Huh7.5FL replicon (full length Con1). Put plainly: HCV replication in full-length (FL) replicon cells, real-time RT-PCR (ΔCT). Format: cell-based. The conditions noted are these: for concentration showing significant antiviral activity / required to suppress HCV replication: FL replicon, 48 hr; for Relative [HCV] [ΔCT]: overnight, Huh7.5FL, control vehicle = 1.0.
Excerpt: as §1, §2

In series [3] the target is T1, HCV NS3/4A recombinant protease (UniProt O92972).
T1 construct: other: recombinant protease, 591 nm/622 nm FRET peptide, regression analysis; other: recombinant NS3/4A, Lineweaver-Burk; other: BV versus BR; effect o; fused on or other part: By knowledge of the vendor's product, the NS4A cofactor segment of the same polyprotein is fused to the N-terminus of the NS3 protease domain
T1 sequence (O92972 1027-1657): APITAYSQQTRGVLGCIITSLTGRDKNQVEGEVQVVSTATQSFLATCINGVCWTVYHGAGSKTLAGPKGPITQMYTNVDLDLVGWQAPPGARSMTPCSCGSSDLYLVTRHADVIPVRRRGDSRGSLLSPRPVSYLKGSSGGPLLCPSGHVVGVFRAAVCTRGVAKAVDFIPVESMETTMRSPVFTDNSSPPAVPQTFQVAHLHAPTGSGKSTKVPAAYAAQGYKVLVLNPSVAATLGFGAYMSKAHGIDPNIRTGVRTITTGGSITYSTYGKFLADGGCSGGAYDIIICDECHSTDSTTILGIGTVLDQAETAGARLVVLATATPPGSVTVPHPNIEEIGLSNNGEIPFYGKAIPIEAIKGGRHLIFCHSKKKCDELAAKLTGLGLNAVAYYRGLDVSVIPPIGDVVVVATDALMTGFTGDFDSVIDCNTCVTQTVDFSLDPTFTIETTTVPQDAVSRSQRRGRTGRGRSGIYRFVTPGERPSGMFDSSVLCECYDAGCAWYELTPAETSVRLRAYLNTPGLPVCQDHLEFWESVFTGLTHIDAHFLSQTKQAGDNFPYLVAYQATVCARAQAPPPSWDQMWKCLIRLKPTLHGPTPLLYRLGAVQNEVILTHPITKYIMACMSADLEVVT
The format is biochemical. On the procedure:
In vitro assay of HCV NS3/4A recombinant protease. Protease activity was determined fluorometrically with the SensoLyte 620 HCV Protease Assay (AnaSpec, Fremont, Calif.) using a wide wavelength excitation/emission (591 nm/622 nm respectively) fluorescence energy transfer peptide according to the manufacturer's instructions. Control incubations with BV or metabolite only were performed to eliminate or correct for autofluorescence or quenching. A competitive inhibitor of the NS3/4A protease, AnaSpec #25346, was used as positive control.

Series [4] deals with HCV RNA in NS and FL replicons after BVR siRNA. The format is cell-based. The conditions noted are these: BV 20 μM or BR 100 μM overnight, both replicon lines, vs scrambled RNA. The procedure:
as §2
Biliverdin reductase (BVR) knockdown. Biliverdin reductase (BVR) siRNA and control (scrambled) siRNA were purchased from Santa Cruz Biotechnology (sc-44650 and sc-37007). BVR knockdown was performed as described previously (Ryter et al., 2007). Efficiency of the knockdown was monitored by semiquantitative densitometry of BVR WB.

For series [5], the target named is HIV-1 protease (Human immunodeficiency virus type 1 group M subtype B, UniProt P04585). The conditions noted are these: McPhee et al. 1996; cited from earlier work.
The conditions of series [6]: unconjugated form; cited from earlier work.
The conditions of series [7]: in vivo; cited from earlier work.
Series [8] relates to NS5A and core protein in NS and FL replicons. Put plainly: Western blot / immunoprecipitation of HCV proteins in replicons. The format is cell-based. The conditions noted are these: 24 hr, BV 20 μM, BR 200 μM, FeCl2 100 mM as printed. The procedure:
Western blot analysis. Western blots (WB) were performed as previously described using enhanced chemiluminescence for signal detection (ECLTM, Amersham) (Abdalla et al., 2005). Signal intensities were quantified using Image J software (NIH).
Immunoprecipitation of NS5A. Log-phase replicons were treated with various concentrations of BV for 48 hr, washed, lysed in cell lysis buffer (Cell Signaling Technology, Beverly, Mass.) and clarified by cold centrifugation (14,000×g for 10 min). An aliquot of supernatant containing 100 μg protein was incubated with 1 μg of HCV NS5A monoclonal antibody (Meridian Life Science, Saco, Me.) and 20 μl of rProtein G Agarose (Invitrogen, CA) overnight at 4° C. The agarose was collected by 3000×g spin, washed three times with ice-cold PBS, then dissolved in 40 μL 2× Laemmli sample buffer (Bio-Rad, CA) and assayed by WB.
(A western blot detects proteins with antibodies after separation by electrophoresis.)

Where [9] appears, read: recombinant protease, 591 nm/622 nm FRET peptide, regression analysis; read-out: IC50, inhibition of HCV NS3/4A protease.

Where two headings read alike, the source gives them in different places. Some results are limits rather than exact numbers.

As for `C=CC1=C(C)/C(=C/c2[nH]c(Cc3[nH]c(/C=C4\NC(=O)C(C)=C4C=C)c(C)c3CCC(=O)O)c(CCC(=O)O)c2C)NC1=O` [Bilirubin IXα, bilirubin-IX-α], the “concentration showing significant antiviral activity / required to suppress HCV replication” value in series [1] and in series [2] was 200 µM each time. Also, the IC50 in series [3] (setting [9]) was greater than 300 µM.

For the compound `CCC1=C(C)/C(=C/c2[nH]c(Cc3[nH]c(/C=C4\NC(=O)C(C)=C4CC)c(C)c3CCC(=O)O)c(CCC(=O)O)c2C)NC1=O` [Mesobilirubin, mesobilirubin], the IC50 in series [3] (setting [9]) is greater than 300 µM.

Consider `C=CC1=C(C)/C(=C/c2[nH]c(Cc3[nH]c(/C=C4\NC(=O)C(C)=C4C=C)c(C)c3CCC(=O)O)c(CCC(=O)O)c2C)NC1=O` [BR, Bilirubin], for which, in series [3] (read-out: IC50, inhibition of HCV NS3/4A protease; recombinant protease, 591 nm/622 nm FRET peptide, regression analysis), the IC50 is greater than 300 µM. For the same compound, the “effect of BVR knockdown on antiviral activity (HCV RNA)” value in series [4] was “no significant effect”. For the same compound, the Ki in series [5] is 0.8 µM. The solubility in water entry in series [6] was “not soluble in water”. The oral bioavailability entry in series [7] is on record as “relatively poor oral bioavailability”.

On to `C=CC1=C(C)/C(=C/C2=NC(=C\c3[nH]c(/C=C4/NC(=O)C(C)=C4C=C)c(C)c3CCC(=O)OC)/C(CCC(=O)OC)=C2C)NC1=O` [Biliverdin dimethylester, biliverdin dimethyl ester], for which, in series [3] (setting [9]), the IC50 was greater than 300 µM.

`[Cl][Fe][Cl]` [FeCl2, reference compound]: in series [2] (FeCl2 100 mM as printed, replicon line not specified, not shown), the “HCV RNA” value was “diminishing HCV RNA”. Also, in series [8] (both replicon lines), the “NS5A protein level (WB)” value is “decreased”. Further, in series [8] (full-length replicons), the “core protein level (WB)” value is listed as “decreased”.

For the compound hemin [Heme], the “Relative [HCV] [ΔCT]” value was 0.27 in series [1] (Heme 5 uM, mean of four); 0.09 in series [1] (Heme 10 uM); 0.03 in series [1] (Heme 20 uM); 0.22 in series [2] (Heme 5 uM); 0.08 in series [2] (Heme 10 uM); 0.04 in series [2] (Heme 20 uM). Also, the “lowest level with apparent antiviral effect” value was 5 in series [1] (hemin, replicons) and 5 in series [2] (hemin, replicons).

Turning to “Bilirubin mixed isomers [Bilirubin (mixed isomers)]”, the “concentration showing significant antiviral activity / required to suppress HCV replication” value in series [1] and in series [2] was 200 µM in each case. In series [3] (setting [9]), the IC50 was greater than 300 µM.

As a reminder, the Ki is the dissociation constant of the complex between target and ligand, obtained from inhibition or displacement.
